Residues, ends and D or L forms follow the SMILES beside them. *: point of attachment. Cbz = O=C(OCc1ccccc1)*; CH2F = FC*
Key:
caspase-3 = biological target: T1, caspase-3 (Homo sapiens, UniProt P42574); format: biochemical; conditions: read-out: Caspase-3 IC50
T1 sequence (P42574 29-175 limits assumed): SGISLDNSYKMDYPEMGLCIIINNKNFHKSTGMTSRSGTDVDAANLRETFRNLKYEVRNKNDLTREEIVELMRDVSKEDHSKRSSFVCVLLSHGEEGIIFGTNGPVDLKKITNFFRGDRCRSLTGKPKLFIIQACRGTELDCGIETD
T1 sequence (P42574 176-277 limits assumed): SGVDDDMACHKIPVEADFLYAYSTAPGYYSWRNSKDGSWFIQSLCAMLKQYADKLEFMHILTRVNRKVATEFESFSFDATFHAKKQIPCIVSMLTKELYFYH

SARS-CoV-2 M^pro = SARS-CoV-2 M^pro (Severe acute respiratory syndrome coronavirus 2, UniProt P0DTD1); conditions: at 20 μM, authors' previous screening; cited from earlier work

SMILES | IC50 (caspase-3) [nM] | inhibition of M^pro enzymatic activity (SARS-CoV-2 M^pro) [%]
COC(=O)C[C@H](NC(=O)[C@H](C)NC(=O)[C@@H](NC(=O)OCc1ccccc1)C(C)C)C(=O)CF [Z-VAD-FMK] (Cbz-Val-Ala-Asp(OMe)-CH2F) | 100 ± 40 | –
CCC[C@H](NC(=O)[C@@H]1[C@H]2CCC[C@H]2CN1C(=O)[C@@H](NC(=O)[C@@H](NC(=O)c1cnccn1)C1CCCCC1)C(C)(C)C)C(=O)C(=O)NC1CC1 [telaprevir] | – | 31

From paper PMC8204911 (ACS Pharmacology & Translational Science, 2021)
